“Also recorded” adds a separate entry of the source. Like-named read-outs stand apart in the source and are kept apart here.
Tests used:
[1] = biological target: T1, Protein kinase type II (cAKII) (Bos taurus, UniProt P00515); assay: Protein kinase activation (Table 15); assay type: biochemical, bovine (heart); conditions: half-maximum activation; U. M.: unmeasurable
T1 construct: prepared from rabbit skeletal muscle and bovine heart; from tissue; host or cells: bovine heart
Protocol: (§1) ATP to Kemptide as described by Ogreid et al., Eur. J. Biochem. 150: 219-227 (1985).
(§2) Protein kinases types I (cAKI) and II (cAKII) were
(§3) prepared from rabbit skeletal muscle and bovine heart,
(§4) respectively, as described in D.o slashed.skeland et al. (J. Biol.
(§5) of the protein kinase in Ogreid et al. (Eur. J. Biochem.

[2] = system: MCF-7ras breast cancer cell line; assay: Synergistic growth inhibition by analogue combinations (Table 2); assay type: cell-based, human; conditions: footnote of Table 2
Protocol: All breast cancer cell lines were grown in IMEM supplemented with 10% fetal bovine serum, HEPES 20 mM, penicillin-streptomycin, and extra glutamine. Colon carcinoma cell lines were grown in EMEM supplemented with 10% FBS, EMEM, NEAA, HEPES 20 mM, extra glutamine, and penicillin-streptomycin. The cells were grown at 37° C. in humidified incubators in an atmosphere of 5% CO2.
For cell growth experiments, 2-3×10^5 cells/60 mm dish were seeded, and 24 hours later (Day 0), the medium was removed, and fresh medium and the additives were added then and every 48 hours thereafter. The compounds of the present invention were added using 100X concentrated stock solutions. At desired times, cell counts in duplicate were performed on a Coulter counter after harvesting the cells with gentle trypsinization.
Synergism quotient was defined as the net growth inhibitory effect of the analogue combination divided by the sum of the net analogue effects on growth inhibition. A quotient of >1 indicates a synergistic effect, while a quotient of <1 indicates an antagonistic effect.
Synergism of growth inhibition was determined by
treatment of cells with C-6 analogues and C-8 analogues alone
and in combination at Day 0 and Day 2 and counting the cell
^a Data are expressed as percentage growth inhibition in reference to
the growth of untreated control cells and represent average values and
ranges (in parentheses) of duplicate cell counts on three or more separat
experiments. The values for percentage growth inhibition of each analogue
^b The synergism quotient was defined as previously described.

[3] = system: p21 ras protein, MCF-7 cells; assay: Western blotting of p21 ras protein (Table 11, FIG. 7); assay type: cell-based, human; conditions: for p21 (Relative Level): 3 days, 8-Cl-cAMP 10 μM, 8-Cl-adenosine 5 μM, DBcAMP 500 μM, control = 1.0 O.D.; for p21 level: three days
Protocol: Western blotting of p21 protein was performed as described below. […] V is cell lysate from Ha-MuSV-transformed NIH3T3 clone 13-3B-4. M, marker proteins of known molecular weight.
Each lane contained 100 micrograms of protein for SDS-PAGE.
Cellular proteins present in cell extracts were separated by 12% SDS-PAGE and transferred to nitrocellulose sheets in transfer buffer (25 mM Tris, 192 mM glycine, 20% methanol, pH 7.4). Nitrocellulose sheets were washed and first incubated with 3% bovine serum albumin in NTE-NP40 (50 mM Tris-HCl, pH 7.5, 150 mM NaCl, 2 mM EDTA, 0.1% Nonidet P-40) for three hours at 37° C. and then sequentially incubated with medium containing p21 monoclonal antiserum Y13-259 directed against the Ha-MuSV-encoded p21 for sixteen hours at 4° C., rabbit anti-rat IgG for 2.5 hours in an ice water bath, and 5×10^5 cpm/ml ^125 I-protein A for one hour in an ice water bath. The nitrocellulose sheets were air dried and exposed to Kodak XAR film for 12-36 hours at -20° C. Comparison of the resulting autoradiograms with others in which normal rat serum was substituted for p21 monoclonal antibody permitted identification of p21. To provide a reference p21, cell lysates were prepared from NIH 3T3 clone 13-3B-4 that had been transfected with HaMuSV DNA.
The levels of p21 protein are expressed relative to the p21 level in the untreated control cells which is set equal to 1.0 O.D.

[4] = system: myc-K562; assay: Growth inhibition of leukemic cells (Table 12); assay type: cell-based; conditions: Homo sapiens
[5] = system: breast and colon cancer lines (MCF-7, T-47D, ZR-75-1, MCF-7ras, MDA-MB-231, BT-20, HBL-100, LS-174T, WiDr, HT-29); assay: Growth inhibition of breast and colon cancer lines (FIG. 1); assay type: cell-based, human
[6] = system: DMBA-1 mammary carcinoma; assay: Growth of transplantable mammary carcinoma, pellet (Table 5); assay type: in vivo, rat; conditions: for Change in mean tumor volume (cm^3) / Change in mean tumor volume (%): pellet with 10 mg analogue, day 7; for Change in mean tumor volume (%): none = 100
Protocol: (§6) Based on the findings with the […] leukemia model, the efficacy of the 8-Cl-cAMP-Na+infusions were evaluated in advanced-stage human tumor xenograft models. Tumor fragments of approximately 14 mg were implanted subcutaneously in athymic CD-1 female mice and seven day intraperitoneal infusions of the cyclic nucleotide were initiated three weeks later when mean tumor weights had reached 300-400 mg. Tumor measurements were recorded on the initial day of treatment (staging day) and one day after treatment was completed (staging day +7), and were used to calculate changes in tumor weights.
DMBA-1, a variant of primary hormonedependent DMBA tumor,
hormoneindependent and transplantable.
(§7) 8Cl-cAMP and DBcAMP were given as a 20mg pellet consisting of 10 mg of […]

[7] = system: NMU-2 mammary carcinoma; assay: Growth of metastatic mammary carcinoma, pellet (Table 5); assay type: in vivo, rat; conditions: for Change in mean tumor volume (cm^3) / Change in mean tumor volume (%): pellet with 10 mg analogue, day 7; for Change in mean tumor volume (%): none = 100
Protocol: as §6
NMU2, a variant of primary hormoneresponsive NMU tumor,
hormoneindependent, transplantable, and metastatic.
as §7

[8] = system: HL-60 human leukemia cells; assay: Growth inhibition of HL-60 leukemia cells (Example 3, Table 16); assay type: cell-based; conditions: for IC50: Homo sapiens
Outline: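 HL-60 cells were grown in suspension in RPMI 1640 with 10% heat-inactivated FBS, starting at 1 × 10^5 cells/dish. Cells were counted on a Coulter Counter after 3 or 6 days of exposure. IC50 values were read from dose-response data and averaged over two or more separate experiments.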

[9] = biological target: T2, Protein kinase type I (cAKI) (Oryctolagus cuniculus, UniProt G1TDN4); assay: Protein kinase activation (Table 15); assay type: biochemical, rabbit (skeletal muscle); conditions: half-maximum activation; U. M.: unmeasurable
T2 construct: prepared from rabbit skeletal muscle and bovine heart; from tissue; host or cells: rabbit skeletal muscle
T2 sequence (G1TDN4 1-381): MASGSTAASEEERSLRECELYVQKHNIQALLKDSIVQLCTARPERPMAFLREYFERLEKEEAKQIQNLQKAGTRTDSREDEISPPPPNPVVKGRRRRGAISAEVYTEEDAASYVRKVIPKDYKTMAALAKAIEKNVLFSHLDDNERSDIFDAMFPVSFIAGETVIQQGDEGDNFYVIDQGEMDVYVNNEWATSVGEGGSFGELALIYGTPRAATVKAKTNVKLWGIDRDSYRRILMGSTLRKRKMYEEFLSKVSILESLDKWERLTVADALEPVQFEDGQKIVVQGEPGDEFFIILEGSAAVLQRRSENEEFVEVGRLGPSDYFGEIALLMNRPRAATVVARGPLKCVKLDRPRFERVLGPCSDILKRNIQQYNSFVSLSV
Protocol: as §1, §2, §3, §4, §5

[10] = system: mammary carcinomas induced by DMBA; conditions: treatment of hosts; cited from earlier work
[11] = system: cultured human fibroblasts; conditions: cited from earlier work

T1 sequence (P00515 2-401 limits assumed): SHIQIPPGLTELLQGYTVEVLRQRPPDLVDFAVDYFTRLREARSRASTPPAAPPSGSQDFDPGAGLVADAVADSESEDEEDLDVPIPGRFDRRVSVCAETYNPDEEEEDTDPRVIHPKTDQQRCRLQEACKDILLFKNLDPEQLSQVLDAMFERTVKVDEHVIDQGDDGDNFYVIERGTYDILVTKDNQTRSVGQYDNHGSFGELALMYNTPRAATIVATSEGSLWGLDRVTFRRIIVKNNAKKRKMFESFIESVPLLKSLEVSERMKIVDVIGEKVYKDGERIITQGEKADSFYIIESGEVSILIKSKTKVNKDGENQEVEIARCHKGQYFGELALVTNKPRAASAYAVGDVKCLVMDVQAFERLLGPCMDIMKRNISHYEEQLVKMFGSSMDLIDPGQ

Nc1ncnc2c1nc(Cl)n2[C@@H]1O[C@@H]2COP(=O)(O)O[C@H]2[C@H]1O [8-Cl-cAMP, 8-chloro-adenosine 3': 5'-monophosphate]
Activation Constant (Ka), cAKII [1]: 1.0 × 10^-7 | percentage growth inhibition of each analogue when added alone [2]: 20% | p21 (Relative Level) [3]: 0.1 ± 0.01 | p21 level [3]: markedly decreased level of p21 | IC50 [4]: 20 µM | growth inhibition of cancer lines ([5]; densitometry text): 45-70% | Change in mean tumor volume (cm^3) [6]: 1.60 cm^3 | Change in mean tumor volume (%) [6]: 61% | inhibition of tumor growth ([6]; pellet, seven days): 40-50% | Change in mean tumor volume (cm^3) [7]: 1.10 cm^3 | Change in mean tumor volume (%) [7]: 51% | inhibition of tumor growth ([7]; pellet, seven days): 40-50% | growth inhibitory potency ([8]; HL-60): potent growth inhibitor of HL-60 cells | IC50 ([8]; HL-60, 72 h, read-out: Growth inhibition (IC50), Day 3): 5 µM | IC50 ([8]; HL-60, 144 h, read-out: Growth inhibition (IC50), Day 6): 0.4 µM | Activation Constant (Ka), cAKI [9]: 1.8 × 10^-8

CCCC(=O)Nc1ncnc2c1ncn2[C@@H]1O[C@@H]2COP(=O)(O)O[C@H]2[C@H]1OC(=O)CCC [DBcAMP, N^6, O^2' -dibutyryl-cAMP, reference compound]
tumor biochemistry during growth arrest [10]: estrogen binding decreases whereas cAMP binding and cAMP-dependent protein kinase activity increase; also recorded: sharp reduction of the translated p21 protein | p21 (Relative Level) [3]: 0.8 ± 0.1 | p21 level [3]: slight reduction in p21 level | IC50 [4]: 1000 µM | inhibition at 1000 µM ([5]; Homo sapiens, 1 mM): 15% | tumor response ([6]; Table 5): completely resistant | Change in mean tumor volume (cm^3) [6]: 2.60 cm^3 | Change in mean tumor volume (%) [6]: 9% | tumor response ([7]; Table 5): completely resistant | Change in mean tumor volume (cm^3) [7]: 2.15 cm^3 | Change in mean tumor volume (%) [7]: 100% | DNA synthesis ([11]; added during first eight hours after serum addition): not delayed | DNA synthesis ([11]; added more than eight hours after serum addition): inhibitory

Reference: patent US5843916A, “Cyclic amp analogues, individually and in pairs, to inhibit neoplastic cell growth” (priority 1994, dated 1998)
